Measurements reported in ChEMBL document CHEMBL1201862, “PubChem BioAssay data set” (2004).
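Values below derive from 48-hour exposures of cells grown in 96-well plates, with endpoints linearly interpolated between the two concentrations bracketing the appropriate inhibition level. At the GI50, growth is halved.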 Calls of active or inactive are those of the source. Cut-off read from the data, not from the text of the source: active = GI50 up to about 1.1 µM and inactive = higher.

Experiments:
Test in all cases: DTP human tumour cell line panel, 48 h
786-0 = test system: 786-0
KM-20L2 = test system: KM-20L2
OVCAR-8 = test system: OVCAR-8
HCC 2998 = test system: HCC 2998
OVCAR-5 = test system: OVCAR-5
SF-539 = test system: SF-539
IGROV-1 = test system: IGROV-1
OVCAR-3 = test system: OVCAR-3
Malme-3M = test system: Malme-3M
SF-268 = test system: SF-268
SW-620 = test system: SW-620
A498 = test system: A498
NCI-H522 = test system: NCI-H522
HOP-92 = test system: HOP-92
CCRF-CEM = test system: CCRF-CEM
COLO 205 = test system: COLO 205
HT-29 = test system: HT-29
KM12 = test system: KM12
M14 = test system: M14
U-251 = test system: U-251
SK-MEL-28 = test system: SK-MEL-28
M19-MEL = test system: M19-MEL
A549 = test system: A549
SNB-19 = test system: SNB-19
NCI-H23 = test system: NCI-H23
HL-60 = test system: HL-60
SN12C = test system: SN12C
OVCAR-4 = test system: OVCAR-4
RPMI-8226 = test system: RPMI-8226
SK-MEL-5 = test system: SK-MEL-5
UACC-62 = test system: UACC-62
SF-295 = test system: SF-295
EKVX = test system: EKVX
SR = test system: SR
SK-OV-3 = test system: SK-OV-3
MOLT-4 = test system: MOLT-4
DLD-1 = test system: DLD-1
UO-31 = test system: UO-31
CAKI-1 = test system: CAKI-1
RXF 393 = test system: RXF 393
DMS-114 = test system: DMS-114
K562 = test system: K562
TK-10 = test system: TK-10
HCT-15 = test system: HCT-15
HCT-116 = test system: HCT-116
HOP-62 = test system: HOP-62
SK-MEL-2 = test system: SK-MEL-2
SNB-75 = test system: SNB-75
LOX IMVI = test system: LOX IMVI
NCI-H460 = test system: NCI-H460
SNB-78 = test system: SNB-78
NCI-H226 = test system: NCI-H226
ACHN = test system: ACHN
UACC-257 = test system: UACC-257
DMS-273 = test system: DMS-273
T47D = test system: T47D
DU-145 = test system: DU-145
Hs-578T = test system: Hs-578T
PC-3 = test system: PC-3
HOP-18 = test system: HOP-18
LXFL 529 = test system: LXFL 529
MDA-MB-435 = test system: MDA-MB-435
MDA-MB-231 = test system: MDA-MB-231
MDA-N = test system: MDA-N
NCI/ADR-RES = test system: NCI/ADR-RES
MCF7 = test system: MCF7
BT-549 = test system: BT-549

Measured: GI50

C=CCC(C(=O)OC)C1(C(=O)OC)c2[nH]c3ccccc3c2CCN1Cc1ccccc1 (configuration not stated)
> 100 µM: HCT-15
inactive: 786-0 19 µM | KM-20L2 > 100 µM | OVCAR-8 83.6 µM | HCC 2998 > 100 µM | OVCAR-5 > 100 µM | SF-539 > 100 µM | IGROV-1 > 100 µM | OVCAR-3 > 100 µM | Malme-3M 51.8 µM | SF-268 > 100 µM | SW-620 > 100 µM | A498 54.6 µM | NCI-H522 > 100 µM | HOP-92 23.4 µM | CCRF-CEM 29.8 µM | COLO 205 > 100 µM | HT-29 > 100 µM | KM12 > 100 µM | M14 82.4 µM | U-251 64.4 µM | SK-MEL-28 > 100 µM | M19-MEL > 100 µM | A549 58.9 µM | SNB-19 > 100 µM | NCI-H23 > 100 µM | HL-60 18.2 µM | SN12C > 100 µM | OVCAR-4 20.2 µM | RPMI-8226 > 100 µM | SK-MEL-5 85.5 µM | UACC-62 74.6 µM | SF-295 35.1 µM | EKVX > 100 µM | SR 6.68 µM | SK-OV-3 89.9 µM | MOLT-4 > 100 µM | DLD-1 > 100 µM | UO-31 53.3 µM | CAKI-1 66.8 µM | RXF 393 33 µM | DMS-114 > 100 µM | K562 > 10 µM | TK-10 > 100 µM | HCT-116 69.5 µM | HOP-62 > 100 µM | SK-MEL-2 > 100 µM | SNB-75 > 100 µM

Cc1ccc(S(=O)(=O)N(/N=C/C=C/c2ccccc2)c2nnc(-c3ccccc3)c(-c3ccccc3)n2)cc1
inactive: 786-0 20.8 µM | KM-20L2 17.9 µM | OVCAR-8 25.6 µM | HCC 2998 13.3 µM | OVCAR-5 41.2 µM | SF-539 16.1 µM | IGROV-1 34.6 µM | OVCAR-3 20.1 µM | Malme-3M 30 µM | SF-268 25.9 µM | SW-620 30.4 µM | A498 36.8 µM | NCI-H522 15.9 µM | HOP-92 19 µM | CCRF-CEM 21.9 µM | COLO 205 16.9 µM | KM12 23 µM | M14 20.8 µM | LOX IMVI 21.5 µM | U-251 32.1 µM | SK-MEL-28 26.3 µM | M19-MEL 28.1 µM | A549 16.9 µM | SNB-19 71.9 µM | NCI-H23 15.8 µM | NCI-H460 21.7 µM | HL-60 14.9 µM | SN12C 38.4 µM | OVCAR-4 9.82 µM | RPMI-8226 11.3 µM | SK-MEL-5 14.9 µM | SNB-78 16.8 µM | UACC-62 26.7 µM | NCI-H226 18.3 µM | SF-295 19 µM | EKVX 24.9 µM | ACHN 29.8 µM | SK-OV-3 34.5 µM | MOLT-4 12.9 µM | DLD-1 21.9 µM | UACC-257 13.3 µM | UO-31 5.86 µM | CAKI-1 17.9 µM | RXF 393 19 µM | DMS-114 16.3 µM | K562 15 µM | TK-10 24.7 µM | HOP-62 18.3 µM | SK-MEL-2 17 µM | DMS-273 18.9 µM | SNB-75 22.4 µM
active: HT-29 0.619 µM
25.6 µM: HCT-15

CCCCCCCCCCCCCCCCCC(=O)Nc1ccn(C2OC(CO)C(O)C2O)c(=O)n1 (configuration not stated)
33 µM: HCT-15
inactive: 786-0 > 40.8 µM | T47D > 100 µM | KM-20L2 32.1 µM | OVCAR-8 7.48 µM | HCC 2998 8.36 µM | DU-145 10.7 µM | OVCAR-5 > 70.5 µM | SF-539 > 76.6 µM | IGROV-1 39 µM | Hs-578T > 100 µM | OVCAR-3 7.93 µM | Malme-3M > 27.9 µM | SF-268 20.1 µM | PC-3 4.92 µM | SW-620 57.1 µM | A498 15.3 µM | NCI-H522 5.04 µM | HOP-92 58.1 µM | COLO 205 61.9 µM | HT-29 20.1 µM | KM12 > 65.9 µM | M14 14.2 µM | LOX IMVI 9.89 µM | U-251 19.4 µM | SK-MEL-28 31.9 µM | M19-MEL 5.69 µM | A549 2.99 µM | SNB-19 19.4 µM | NCI-H23 4.8 µM | NCI-H460 2.69 µM | HL-60 3.43 µM | SN12C 26.1 µM | HOP-18 > 100 µM | OVCAR-4 > 100 µM | RPMI-8226 31.6 µM | SK-MEL-5 47.9 µM | SNB-78 > 100 µM | UACC-62 40.3 µM | NCI-H226 > 90.2 µM | LXFL 529 > 100 µM | MDA-MB-435 19.3 µM | SF-295 > 85.1 µM | MDA-MB-231 > 100 µM | EKVX > 100 µM | MDA-N > 100 µM | ACHN 4.74 µM | SR 2.14 µM | SK-OV-3 35.1 µM | DLD-1 > 100 µM | UACC-257 > 100 µM | UO-31 5.87 µM | CAKI-1 10.5 µM | RXF 393 26.8 µM | K562 7.67 µM | TK-10 > 100 µM | HCT-116 3.32 µM | NCI/ADR-RES 30.5 µM | HOP-62 2.8 µM | MCF7 2.06 µM | BT-549 > 54.2 µM | SK-MEL-2 > 100 µM | DMS-273 14.3 µM | SNB-75 52.6 µM
active: CCRF-CEM 0.097 µM | MOLT-4 0.343 µM
